Reference: the CheMixHub viscosity set
± gives the uncertainty stated by the source.

Assay: xn = mol fraction of the nth substance listed

CCC(C)(O)CC + CCO
298.15 K, 101.33 kPa
Settings | viscosity [mPa·s]
x2 = 0.1124 | 3.619 ± 0.029
x2 = 0.2131 | 3.405 ± 0.027
x2 = 0.299 | 3.345 ± 0.027
x2 = 0.4102 | 3.232 ± 0.026
x2 = 0.5116 | 3.007 ± 0.024
x2 = 0.6138 | 2.632 ± 0.021
x2 = 0.7104 | 2.203 ± 0.017
x2 = 0.7975 | 1.837 ± 0.015
x2 = 0.901 | 1.405 ± 0.011

ClC(Cl)(Cl)Cl + CCOC(C)=O
101.3 kPa
Settings | viscosity [mPa·s]
298 K, x1 = 0.1581 | 0.517 ± 0.007
298 K, x1 = 0.3048 | 0.57 ± 0.007
298 K, x1 = 0.501 | 0.644 ± 0.007
298 K, x1 = 0.6498 | 0.713 ± 0.008
298 K, x1 = 0.8438 | 0.808 ± 0.008
303.15 K, x2 = 0.1014 | 0.758 ± 0.0049
303.15 K, x2 = 0.1972 | 0.6991 ± 0.0046
303.15 K, x2 = 0.2976 | 0.6483 ± 0.0043
303.15 K, x2 = 0.394 | 0.6016 ± 0.0041
303.15 K, x2 = 0.4966 | 0.5603 ± 0.0039
303.15 K, x2 = 0.5986 | 0.5236 ± 0.0037
303.15 K, x2 = 0.6989 | 0.4883 ± 0.0035
303.15 K, x2 = 0.802 | 0.4572 ± 0.0033
303.15 K, x2 = 0.898 | 0.4289 ± 0.0031
318 K, x1 = 0.1518 | 0.4229 ± 0.017
318 K, x1 = 0.3052 | 0.4655 ± 0.018
318 K, x1 = 0.5035 | 0.5279 ± 0.02
318 K, x1 = 0.6517 | 0.5797 ± 0.022
318 K, x1 = 0.854 | 0.6674 ± 0.025

CCN(CC)CC + CCc1ccccc1
303.15 K, 101 kPa
Settings | viscosity [mPa·s]
x1 = 0.01075 | 0.5914 ± 0.0052
x1 = 0.02054 | 0.5873 ± 0.0052
x1 = 0.03021 | 0.5822 ± 0.0051
x1 = 0.04405 | 0.5755 ± 0.0051
x1 = 0.05034 | 0.5715 ± 0.005
x1 = 0.06324 | 0.5666 ± 0.0051
x1 = 0.07098 | 0.5623 ± 0.005
x1 = 0.0794 | 0.5569 ± 0.005
x1 = 0.09408 | 0.5505 ± 0.0048
x1 = 0.1003 | 0.5476 ± 0.0048

[Br-].[Li+] + CN1CCCC1=O
298.15 K, 101 kPa
Settings | viscosity [mPa·s]
x1 = 0.02596 | 2.385 ± 0.02
x1 = 0.02626 | 2.359 ± 0.02
x1 = 0.02735 | 2.37 ± 0.02
x1 = 0.05088 | 3.13 ± 0.024
x1 = 0.05114 | 3.124 ± 0.024
x1 = 0.05202 | 3.192 ± 0.024
x1 = 0.07505 | 4.349 ± 0.032
x1 = 0.07536 | 4.344 ± 0.032
x1 = 0.07626 | 4.329 ± 0.031

ClC(Cl)(Cl)Cl + CN(C)C=O
viscosity [mPa·s], 101.3 kPa
Settings | x1 = 0.1208 | x1 = 0.129 | x1 = 0.2535 | x1 = 0.2556 | x1 = 0.4423 | x1 = 0.4437 | x1 = 0.5937 | x1 = 0.595 | x1 = 0.8073 | x1 = 0.8235
298 K | – | 0.879 ± 0.011 | – | 0.918 ± 0.011 | – | 0.958 ± 0.011 | – | 0.966 ± 0.011 | 0.949 ± 0.01 | –
318 K | 0.6789 ± 0.025 | – | 0.7118 ± 0.026 | – | 0.745 ± 0.027 | – | 0.7608 ± 0.028 | – | – | 0.7506 ± 0.027

CCCC(C)=O + CN(C)c1ccccc1
viscosity [mPa·s], 101 kPa
Settings | 303.15 K | 308.15 K
x2 = 0.0756 | 0.574 ± 0.024 | 0.525 ± 0.022
x2 = 0.1362 | 0.669 ± 0.027 | 0.611 ± 0.025
x2 = 0.2003 | 0.76 ± 0.029 | 0.7 ± 0.028
x2 = 0.2795 | 0.875 ± 0.033 | 0.803 ± 0.031
x2 = 0.3412 | 0.941 ± 0.035 | 0.873 ± 0.033
x2 = 0.4101 | 1.012 ± 0.038 | 0.94 ± 0.035
x2 = 0.4921 | 1.072 ± 0.039 | 1.001 ± 0.037
x2 = 0.5741 | 1.112 ± 0.041 | 1.041 ± 0.038
x2 = 0.6512 | 1.134 ± 0.041 | 1.063 ± 0.039
x2 = 0.7214 | 1.143 ± 0.042 | 1.071 ± 0.039
x2 = 0.7914 | 1.148 ± 0.042 | 1.074 ± 0.039
x2 = 0.8512 | 1.15 ± 0.042 | 1.076 ± 0.04
x2 = 0.9214 | 1.159 ± 0.042 | 1.085 ± 0.04

CCC(C)(O)CC + CO
298.15 K, 101.33 kPa
Settings | viscosity [mPa·s]
x2 = 0.1032 | 3.799 ± 0.035
x2 = 0.2156 | 3.553 ± 0.032
x2 = 0.3158 | 3.317 ± 0.03
x2 = 0.4019 | 3.048 ± 0.028
x2 = 0.5004 | 2.6 ± 0.024
x2 = 0.6084 | 2.079 ± 0.019
x2 = 0.7088 | 1.568 ± 0.015
x2 = 0.8021 | 1.16 ± 0.011
x2 = 0.9011 | 0.8027 ± 0.0079

[Br-].[Li+] + CO
101 kPa
Settings | viscosity [mPa·s]
293.15 K, x2 = 0.7334 | 86.34 ± 8.7
293.15 K, x2 = 0.7699 | 40.18 ± 4.1
293.15 K, x2 = 0.804 | 20.18 ± 2
293.15 K, x2 = 0.8367 | 10.43 ± 1
293.15 K, x2 = 0.8645 | 6.343 ± 0.64
293.15 K, x2 = 0.8908 | 4.223 ± 0.42
303.15 K, x2 = 0.6926 | 102.1 ± 10
303.15 K, x2 = 0.7326 | 55.05 ± 5.5
303.15 K, x2 = 0.7698 | 28.35 ± 2.9
303.15 K, x2 = 0.8039 | 15.05 ± 1.5
303.15 K, x2 = 0.836 | 8.725 ± 0.88
303.15 K, x2 = 0.8642 | 5.422 ± 0.54
303.15 K, x2 = 0.8908 | 3.697 ± 0.37
313.15 K, x2 = 0.6913 | 65.32 ± 6.6
313.15 K, x2 = 0.7324 | 35.2 ± 3.5
313.15 K, x2 = 0.7697 | 19.67 ± 2
313.15 K, x2 = 0.8039 | 11.37 ± 1.1
313.15 K, x2 = 0.836 | 7.147 ± 0.72
313.15 K, x2 = 0.8644 | 4.634 ± 0.46
313.15 K, x2 = 0.8908 | 3.566 ± 0.36
323.15 K, x2 = 0.691 | 42.31 ± 4.3
323.15 K, x2 = 0.7323 | 24.55 ± 2.5
323.15 K, x2 = 0.7696 | 14.41 ± 1.4
323.15 K, x2 = 0.8039 | 9.136 ± 0.92
323.15 K, x2 = 0.836 | 5.438 ± 0.55
323.15 K, x2 = 0.8644 | 3.976 ± 0.4

ClC(Cl)(Cl)Cl + COC(=O)OC
viscosity [mPa·s], 101.33 kPa
Settings | x2 = 0.0994 | x2 = 0.201 | x2 = 0.3063 | x2 = 0.4005 | x2 = 0.5036 | x2 = 0.5982 | x2 = 0.7031 | x2 = 0.833 | x2 = 0.8997
298.15 K | 0.77 ± 0.02 | 0.724 ± 0.019 | 0.689 ± 0.018 | 0.656 ± 0.018 | 0.631 ± 0.017 | 0.608 ± 0.017 | 0.585 ± 0.016 | 0.557 ± 0.016 | 0.543 ± 0.016
303.15 K | 0.719 ± 0.019 | 0.68 ± 0.018 | 0.646 ± 0.017 | 0.614 ± 0.017 | 0.588 ± 0.016 | 0.572 ± 0.016 | 0.548 ± 0.016 | 0.52 ± 0.015 | 0.511 ± 0.015
308.15 K | 0.676 ± 0.018 | 0.633 ± 0.017 | 0.604 ± 0.016 | 0.575 ± 0.016 | 0.551 ± 0.015 | 0.536 ± 0.015 | 0.516 ± 0.015 | 0.493 ± 0.014 | 0.481 ± 0.014

ClC(Cl)(Cl)Cl + COC(C)=O
303.15 K, 101.3 kPa
Settings | viscosity [mPa·s]
x2 = 0.1004 | 0.763 ± 0.005
x2 = 0.1926 | 0.7035 ± 0.0046
x2 = 0.2864 | 0.6472 ± 0.0043
x2 = 0.4018 | 0.587 ± 0.004
x2 = 0.5025 | 0.5405 ± 0.0038
x2 = 0.6004 | 0.5006 ± 0.0035
x2 = 0.7001 | 0.4608 ± 0.0033
x2 = 0.8964 | 0.3807 ± 0.0029
